From ChEMBL document CHEMBL5212743, “Selectivity Literature for EUbOPEN Chemogenomics Library wave 3” (2023)
Values belong to the molecule of their own block, whether it stands above or below them.

How the values were obtained:
[1] = target: D(1A) dopamine receptor (Homo sapiens, UniProt P21728); assay: Selectivity interaction (GPCR panel (PDSP screen)) EUB0000342a DRD1
[2] = target: Histamine H4 receptor (Homo sapiens, UniProt Q9H3N8); assay: Selectivity interaction (GPCR panel (PDSP screen)) EUB0000342a HRH4
[3] = target: 5'-AMP-activated protein kinase catalytic subunit alpha-2 (Homo sapiens) (UniProt P54646); assay: Selectivity interaction (KinomeScan (DiscoverX)) EUB0000351a PRKAA2; details: at 1 µM
[4] = target: cGMP-inhibited 3',5'-cyclic phosphodiesterase 3A (Homo sapiens, UniProt Q14432); assay: Selectivity interaction (CEREP ligand profiling ) EUB0000351a PDE3A
[5] = target: T1, Phosphatidylinositol 4,5-bisphosphate 3-kinase catalytic subunit alpha isoform (Homo sapiens, UniProt P42336); assay: Selectivity interaction (KinomeScan (DiscoverX)) EUB0000351a PIK3CA; details: at 1 µM
T1 sequence (P42336 whole entry, canonical isoform): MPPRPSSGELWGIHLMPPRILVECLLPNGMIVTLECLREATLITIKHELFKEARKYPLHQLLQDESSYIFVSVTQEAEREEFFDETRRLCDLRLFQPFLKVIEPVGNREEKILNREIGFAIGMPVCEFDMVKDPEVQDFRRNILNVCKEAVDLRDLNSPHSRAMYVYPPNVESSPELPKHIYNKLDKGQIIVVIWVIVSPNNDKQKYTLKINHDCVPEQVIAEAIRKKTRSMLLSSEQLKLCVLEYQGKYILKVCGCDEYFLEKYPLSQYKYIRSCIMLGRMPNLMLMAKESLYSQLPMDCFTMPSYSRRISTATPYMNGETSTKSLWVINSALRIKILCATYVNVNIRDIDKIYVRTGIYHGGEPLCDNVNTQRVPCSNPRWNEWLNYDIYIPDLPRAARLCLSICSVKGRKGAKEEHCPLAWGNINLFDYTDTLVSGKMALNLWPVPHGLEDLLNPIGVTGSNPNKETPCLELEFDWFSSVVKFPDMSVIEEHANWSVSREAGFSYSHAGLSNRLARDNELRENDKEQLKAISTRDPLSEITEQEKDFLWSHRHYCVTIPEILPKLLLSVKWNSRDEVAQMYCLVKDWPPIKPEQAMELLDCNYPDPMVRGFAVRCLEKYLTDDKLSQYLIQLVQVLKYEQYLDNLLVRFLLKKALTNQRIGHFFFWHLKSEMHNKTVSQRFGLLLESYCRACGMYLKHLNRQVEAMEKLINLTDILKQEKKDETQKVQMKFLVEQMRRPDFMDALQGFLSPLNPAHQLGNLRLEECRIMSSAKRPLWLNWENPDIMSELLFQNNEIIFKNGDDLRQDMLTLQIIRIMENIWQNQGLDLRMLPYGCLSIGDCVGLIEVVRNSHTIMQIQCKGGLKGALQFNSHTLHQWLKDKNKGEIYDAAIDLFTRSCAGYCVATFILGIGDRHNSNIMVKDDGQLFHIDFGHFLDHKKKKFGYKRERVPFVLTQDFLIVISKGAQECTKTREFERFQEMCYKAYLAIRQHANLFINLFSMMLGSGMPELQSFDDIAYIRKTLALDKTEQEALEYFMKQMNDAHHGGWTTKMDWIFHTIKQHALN

[6] = target: T2, Serine/threonine-protein kinase TAO3 (Homo sapiens) (UniProt Q9H2K8); assay: Selectivity interaction (KinomeScan (DiscoverX)) EUB0000351a TAOK3; details: at 1 µM
T2 sequence (whole entry): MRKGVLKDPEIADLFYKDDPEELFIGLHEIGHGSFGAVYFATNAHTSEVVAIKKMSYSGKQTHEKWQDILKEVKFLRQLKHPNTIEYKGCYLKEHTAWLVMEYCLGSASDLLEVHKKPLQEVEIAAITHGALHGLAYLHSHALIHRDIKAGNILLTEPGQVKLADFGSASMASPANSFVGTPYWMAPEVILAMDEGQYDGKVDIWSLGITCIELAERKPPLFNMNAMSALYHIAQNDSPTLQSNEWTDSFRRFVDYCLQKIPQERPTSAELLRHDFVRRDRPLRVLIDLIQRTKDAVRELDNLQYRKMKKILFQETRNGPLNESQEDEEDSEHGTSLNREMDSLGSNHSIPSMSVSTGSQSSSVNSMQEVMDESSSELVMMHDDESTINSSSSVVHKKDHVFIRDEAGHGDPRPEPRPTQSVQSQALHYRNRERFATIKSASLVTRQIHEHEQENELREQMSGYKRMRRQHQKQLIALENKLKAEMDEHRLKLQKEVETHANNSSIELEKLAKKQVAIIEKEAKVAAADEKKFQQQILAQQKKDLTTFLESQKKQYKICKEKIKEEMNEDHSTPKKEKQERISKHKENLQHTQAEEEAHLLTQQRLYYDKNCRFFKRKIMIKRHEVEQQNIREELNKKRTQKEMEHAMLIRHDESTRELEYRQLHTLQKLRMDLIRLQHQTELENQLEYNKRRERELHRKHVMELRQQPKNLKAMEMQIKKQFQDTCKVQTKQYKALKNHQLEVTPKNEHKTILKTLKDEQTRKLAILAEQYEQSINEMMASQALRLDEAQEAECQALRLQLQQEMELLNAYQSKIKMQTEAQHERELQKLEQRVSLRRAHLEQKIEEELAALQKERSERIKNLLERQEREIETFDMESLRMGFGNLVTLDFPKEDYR

[7] = target: D(3) dopamine receptor (Homo sapiens, UniProt P35462); assay: Selectivity interaction (GPCR panel (PDSP screen)) EUB0000351a DRD3; details: at 10 µM
Sequence of D(3) dopamine receptor (P35462 whole entry): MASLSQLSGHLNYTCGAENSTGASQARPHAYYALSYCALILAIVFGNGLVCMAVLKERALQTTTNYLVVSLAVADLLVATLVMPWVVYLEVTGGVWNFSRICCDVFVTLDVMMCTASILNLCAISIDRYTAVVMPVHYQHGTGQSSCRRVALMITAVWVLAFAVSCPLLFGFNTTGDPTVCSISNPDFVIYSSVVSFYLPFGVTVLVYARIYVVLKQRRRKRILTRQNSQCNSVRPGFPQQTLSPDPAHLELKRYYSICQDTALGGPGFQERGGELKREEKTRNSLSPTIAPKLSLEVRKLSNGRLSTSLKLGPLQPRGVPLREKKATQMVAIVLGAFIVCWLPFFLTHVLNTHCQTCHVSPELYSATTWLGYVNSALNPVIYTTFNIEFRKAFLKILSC

[8] = target: 5-hydroxytryptamine receptor 2B (Homo sapiens, UniProt P41595); assay: Selectivity interaction (GPCR panel (PDSP screen)) EUB0000540a HTR2B
[9] = target: Mitotic checkpoint serine/threonine-protein kinase BUB1 (Homo sapiens) (UniProt O43683); assay: Selectivity interaction (GPCR panel (PDSP screen)) EUB0000540a BUB1; details: at 1 µM
[10] = target: T3, Gamma-aminobutyric acid receptor subunit alpha-1 (Homo sapiens, UniProt P14867); assay: Selectivity interaction (GPCR panel (PDSP screen)) EUB0000540a GABRA1
T3 sequence (P14867 whole entry): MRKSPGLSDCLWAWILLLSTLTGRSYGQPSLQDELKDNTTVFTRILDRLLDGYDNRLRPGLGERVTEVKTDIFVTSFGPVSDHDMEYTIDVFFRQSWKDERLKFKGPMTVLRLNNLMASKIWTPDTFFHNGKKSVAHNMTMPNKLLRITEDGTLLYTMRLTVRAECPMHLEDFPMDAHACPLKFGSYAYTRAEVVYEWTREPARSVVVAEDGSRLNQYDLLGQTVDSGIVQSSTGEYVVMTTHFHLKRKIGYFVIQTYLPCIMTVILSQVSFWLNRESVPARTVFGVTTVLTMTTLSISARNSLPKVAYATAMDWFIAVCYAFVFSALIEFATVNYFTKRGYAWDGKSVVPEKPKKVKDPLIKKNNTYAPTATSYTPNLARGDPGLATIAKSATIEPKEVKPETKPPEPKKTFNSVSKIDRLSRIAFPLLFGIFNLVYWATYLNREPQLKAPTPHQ

[11] = target: Serine/threonine-protein kinase WNK2 (Homo sapiens) (UniProt Q9Y3S1); assay: Selectivity interaction (GPCR panel (PDSP screen)) EUB0000540a WNK2; details: at 1 µM
[12] = target: T4, Mitogen-activated protein kinase kinase kinase 13 (Homo sapiens) (UniProt O43283); assay: Selectivity interaction (KinomeScan (DiscoverX)) EUB0000540a MAP3K13; details: at 1 µM
T4 sequence (whole entry): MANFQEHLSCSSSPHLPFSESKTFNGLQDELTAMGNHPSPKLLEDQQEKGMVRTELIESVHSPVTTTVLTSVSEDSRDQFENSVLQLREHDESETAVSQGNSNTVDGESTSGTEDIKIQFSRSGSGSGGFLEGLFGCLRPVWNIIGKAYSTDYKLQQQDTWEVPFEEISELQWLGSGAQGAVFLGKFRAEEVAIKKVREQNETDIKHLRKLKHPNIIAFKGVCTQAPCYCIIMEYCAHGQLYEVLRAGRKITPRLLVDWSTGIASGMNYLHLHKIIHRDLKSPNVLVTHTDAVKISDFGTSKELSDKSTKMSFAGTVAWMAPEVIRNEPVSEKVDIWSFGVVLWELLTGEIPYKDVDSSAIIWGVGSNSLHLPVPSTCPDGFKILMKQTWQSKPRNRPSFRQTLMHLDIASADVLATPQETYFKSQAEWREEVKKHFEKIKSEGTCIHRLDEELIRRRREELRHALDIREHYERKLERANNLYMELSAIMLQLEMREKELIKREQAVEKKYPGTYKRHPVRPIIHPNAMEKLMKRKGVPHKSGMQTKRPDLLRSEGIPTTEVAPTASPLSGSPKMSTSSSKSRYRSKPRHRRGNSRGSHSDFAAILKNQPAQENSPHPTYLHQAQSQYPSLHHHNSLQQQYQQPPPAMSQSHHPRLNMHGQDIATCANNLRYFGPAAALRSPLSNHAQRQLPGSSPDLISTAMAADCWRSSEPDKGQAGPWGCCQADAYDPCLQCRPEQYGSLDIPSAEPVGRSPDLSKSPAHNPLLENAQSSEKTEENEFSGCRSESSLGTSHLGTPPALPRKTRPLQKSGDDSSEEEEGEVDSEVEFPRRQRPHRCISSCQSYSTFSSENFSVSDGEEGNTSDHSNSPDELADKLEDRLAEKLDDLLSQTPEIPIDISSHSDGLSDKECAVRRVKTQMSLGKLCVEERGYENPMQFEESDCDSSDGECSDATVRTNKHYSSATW

[13] = target: 5-hydroxytryptamine receptor 2A (Homo sapiens, UniProt P28223); assay: Selectivity interaction (GPCR panel (PDSP screen)) EUB0000540a HTR2A
Sequence of 5-hydroxytryptamine receptor 2A (P28223 whole entry): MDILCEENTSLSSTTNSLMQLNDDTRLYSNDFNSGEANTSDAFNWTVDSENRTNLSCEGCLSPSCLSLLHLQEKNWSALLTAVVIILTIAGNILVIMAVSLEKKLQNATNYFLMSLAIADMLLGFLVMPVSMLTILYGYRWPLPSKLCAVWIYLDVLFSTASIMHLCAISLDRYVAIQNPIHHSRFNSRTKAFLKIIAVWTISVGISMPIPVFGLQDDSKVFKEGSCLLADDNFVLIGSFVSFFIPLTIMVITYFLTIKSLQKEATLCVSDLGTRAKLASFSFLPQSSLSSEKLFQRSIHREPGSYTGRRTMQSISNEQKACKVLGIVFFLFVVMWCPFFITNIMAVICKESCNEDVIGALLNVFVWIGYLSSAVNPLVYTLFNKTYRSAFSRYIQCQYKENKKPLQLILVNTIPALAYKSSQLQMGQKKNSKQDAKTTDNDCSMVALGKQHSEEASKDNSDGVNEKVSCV

[14] = target: T5, Alpha-2C adrenergic receptor (Homo sapiens, UniProt P18825); assay: Selectivity interaction (GPCR panel (PDSP screen)) EUB0000540a ADRA2C
T5 sequence (P18825 whole entry): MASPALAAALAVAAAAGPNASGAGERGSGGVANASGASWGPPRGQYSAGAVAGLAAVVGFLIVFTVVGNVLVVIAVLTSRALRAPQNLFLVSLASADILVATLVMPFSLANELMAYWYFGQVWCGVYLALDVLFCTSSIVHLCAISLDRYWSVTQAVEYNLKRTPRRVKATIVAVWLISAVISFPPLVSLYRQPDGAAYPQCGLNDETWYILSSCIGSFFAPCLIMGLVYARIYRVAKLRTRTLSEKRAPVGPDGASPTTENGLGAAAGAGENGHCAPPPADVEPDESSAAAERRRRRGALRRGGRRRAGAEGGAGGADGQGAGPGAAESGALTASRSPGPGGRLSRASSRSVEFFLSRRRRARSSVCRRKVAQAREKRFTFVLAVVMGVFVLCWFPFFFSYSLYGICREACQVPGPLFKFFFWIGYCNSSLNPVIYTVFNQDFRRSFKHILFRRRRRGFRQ

[15] = target: 5-hydroxytryptamine receptor 2C (Homo sapiens, UniProt P28335); assay: Selectivity interaction (GPCR panel (PDSP screen)) EUB0000540a HTR2C
Sequence of 5-hydroxytryptamine receptor 2C (P28335 whole entry): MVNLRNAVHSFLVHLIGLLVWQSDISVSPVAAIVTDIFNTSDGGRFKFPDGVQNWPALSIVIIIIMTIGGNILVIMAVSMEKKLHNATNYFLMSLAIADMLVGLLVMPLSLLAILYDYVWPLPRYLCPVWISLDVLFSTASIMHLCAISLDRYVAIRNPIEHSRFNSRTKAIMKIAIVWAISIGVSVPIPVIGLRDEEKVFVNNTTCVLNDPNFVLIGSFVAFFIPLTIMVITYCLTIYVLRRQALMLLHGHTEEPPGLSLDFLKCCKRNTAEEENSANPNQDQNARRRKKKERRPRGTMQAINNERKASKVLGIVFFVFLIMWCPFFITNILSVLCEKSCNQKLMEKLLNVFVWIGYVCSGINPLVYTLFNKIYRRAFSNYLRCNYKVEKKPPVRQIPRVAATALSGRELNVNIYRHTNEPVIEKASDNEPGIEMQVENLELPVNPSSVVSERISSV

[16] = target: Sigma non-opioid intracellular receptor 1 (Homo sapiens, UniProt Q99720); assay: Selectivity interaction (GPCR panel (PDSP screen)) EUB0000540a SIGMAR1
Sequence of Sigma non-opioid intracellular receptor 1 (Q99720 whole entry): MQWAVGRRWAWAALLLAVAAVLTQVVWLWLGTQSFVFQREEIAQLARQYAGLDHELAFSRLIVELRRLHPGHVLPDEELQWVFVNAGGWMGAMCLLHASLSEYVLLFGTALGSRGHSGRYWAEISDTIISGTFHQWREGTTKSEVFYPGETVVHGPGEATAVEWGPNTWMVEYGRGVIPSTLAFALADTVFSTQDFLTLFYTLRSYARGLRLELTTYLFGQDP

[17] = target: Sigma intracellular receptor 2 (Homo sapiens, UniProt Q5BJF2); assay: Selectivity interaction (GPCR panel (PDSP screen)) EUB0000540a TMEM97
Sequence of Sigma intracellular receptor 2 (Q5BJF2 whole entry, canonical isoform): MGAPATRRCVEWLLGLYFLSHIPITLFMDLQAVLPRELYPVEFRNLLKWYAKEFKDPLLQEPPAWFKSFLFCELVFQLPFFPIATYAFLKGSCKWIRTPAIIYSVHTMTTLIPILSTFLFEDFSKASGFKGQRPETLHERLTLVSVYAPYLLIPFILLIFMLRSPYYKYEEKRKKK

[18] = target: T1, Phosphatidylinositol 4,5-bisphosphate 3-kinase catalytic subunit alpha isoform; assay: Selectivity interaction (KinomeScan (DiscoverX)) EUB0000306b PIK3CA; details: at 1 µM
[19] = tested on: Mast/stem cell growth factor receptor Kit (Homo sapiens), P10721 [L576P]; assay: Selectivity interaction (KinomeScan (DiscoverX)) EUB0000306b KIT; details: at 1 µM
[20] = target: T2, Serine/threonine-protein kinase TAO3 (Homo sapiens); assay: Selectivity interaction (KinomeScan (DiscoverX)) EUB0000306b TAOK3; details: at 1 µM
[21] = target: T3, Gamma-aminobutyric acid receptor subunit alpha-1; assay: Selectivity interaction (GPCR panel (PDSP screen)) EUB0000306b GABRA1
[22] = target: T6, Serine/threonine-protein kinase Sgk1 (Homo sapiens) (UniProt O00141); details: at 1 µM
T6 sequence (whole entry): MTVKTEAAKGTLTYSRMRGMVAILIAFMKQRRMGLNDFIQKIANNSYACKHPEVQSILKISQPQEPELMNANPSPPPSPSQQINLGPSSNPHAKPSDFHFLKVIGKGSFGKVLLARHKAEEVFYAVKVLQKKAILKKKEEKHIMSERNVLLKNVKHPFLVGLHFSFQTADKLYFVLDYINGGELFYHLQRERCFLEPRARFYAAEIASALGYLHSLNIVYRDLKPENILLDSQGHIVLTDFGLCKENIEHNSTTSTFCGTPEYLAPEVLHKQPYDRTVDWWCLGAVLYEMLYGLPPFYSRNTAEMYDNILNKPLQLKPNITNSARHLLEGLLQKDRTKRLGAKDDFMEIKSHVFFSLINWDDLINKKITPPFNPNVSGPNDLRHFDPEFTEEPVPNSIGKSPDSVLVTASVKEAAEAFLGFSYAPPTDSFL

[23] = target: Ephrin type-B receptor 2 (Homo sapiens, UniProt P29323)
Sequence of Ephrin type-B receptor 2 (P29323 whole entry): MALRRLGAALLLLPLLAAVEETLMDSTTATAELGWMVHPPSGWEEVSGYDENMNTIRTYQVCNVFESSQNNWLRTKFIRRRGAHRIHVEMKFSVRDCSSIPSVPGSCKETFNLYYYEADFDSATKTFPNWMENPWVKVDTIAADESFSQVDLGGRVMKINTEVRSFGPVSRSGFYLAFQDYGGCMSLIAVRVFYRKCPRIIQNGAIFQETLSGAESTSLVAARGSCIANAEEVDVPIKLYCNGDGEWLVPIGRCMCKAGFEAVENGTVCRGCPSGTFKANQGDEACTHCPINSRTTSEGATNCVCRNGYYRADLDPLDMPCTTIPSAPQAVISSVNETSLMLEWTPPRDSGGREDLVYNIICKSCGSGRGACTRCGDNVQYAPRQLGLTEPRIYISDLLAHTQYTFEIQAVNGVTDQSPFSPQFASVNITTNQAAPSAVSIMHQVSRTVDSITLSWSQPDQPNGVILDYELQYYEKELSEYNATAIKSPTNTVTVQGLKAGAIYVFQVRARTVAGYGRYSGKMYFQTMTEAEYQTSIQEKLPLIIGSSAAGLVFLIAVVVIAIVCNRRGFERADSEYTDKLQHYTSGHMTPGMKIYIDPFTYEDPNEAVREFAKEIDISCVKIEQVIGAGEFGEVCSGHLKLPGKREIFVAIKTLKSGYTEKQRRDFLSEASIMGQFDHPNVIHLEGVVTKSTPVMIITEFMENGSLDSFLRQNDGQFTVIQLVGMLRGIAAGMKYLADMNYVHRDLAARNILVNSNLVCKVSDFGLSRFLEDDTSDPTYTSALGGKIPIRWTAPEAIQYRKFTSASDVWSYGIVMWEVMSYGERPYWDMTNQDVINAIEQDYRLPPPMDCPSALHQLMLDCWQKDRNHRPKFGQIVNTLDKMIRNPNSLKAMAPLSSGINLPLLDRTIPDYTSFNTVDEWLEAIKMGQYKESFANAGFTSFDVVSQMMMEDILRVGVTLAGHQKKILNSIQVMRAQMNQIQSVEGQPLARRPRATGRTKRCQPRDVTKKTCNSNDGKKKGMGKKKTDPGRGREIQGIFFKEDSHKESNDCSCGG

[24] = target: T7, Mitogen-activated protein kinase 15 (Homo sapiens) (UniProt Q8TD08); details: at 10 µM
T7 sequence (whole entry): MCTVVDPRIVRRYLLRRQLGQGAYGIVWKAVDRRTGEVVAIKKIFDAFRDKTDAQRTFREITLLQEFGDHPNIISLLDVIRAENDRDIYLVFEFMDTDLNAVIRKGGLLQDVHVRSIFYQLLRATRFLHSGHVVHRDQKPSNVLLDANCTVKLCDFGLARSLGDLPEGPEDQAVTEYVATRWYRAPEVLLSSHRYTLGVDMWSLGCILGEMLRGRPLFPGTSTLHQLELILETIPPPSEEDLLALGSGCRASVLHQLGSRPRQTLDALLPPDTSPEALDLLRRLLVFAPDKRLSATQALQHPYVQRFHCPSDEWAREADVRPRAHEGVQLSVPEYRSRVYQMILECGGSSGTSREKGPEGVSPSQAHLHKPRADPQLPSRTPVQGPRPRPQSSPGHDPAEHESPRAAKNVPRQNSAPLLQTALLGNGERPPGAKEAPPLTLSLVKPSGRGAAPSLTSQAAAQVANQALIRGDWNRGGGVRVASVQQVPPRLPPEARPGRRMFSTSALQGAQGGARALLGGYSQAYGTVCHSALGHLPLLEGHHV

[25] = target: Calcium/calmodulin-dependent protein kinase type IV (Homo sapiens) (UniProt Q16566); details: at 1 µM
Sequence of Calcium/calmodulin-dependent protein kinase type IV (Homo sapiens) (Q16566 whole entry): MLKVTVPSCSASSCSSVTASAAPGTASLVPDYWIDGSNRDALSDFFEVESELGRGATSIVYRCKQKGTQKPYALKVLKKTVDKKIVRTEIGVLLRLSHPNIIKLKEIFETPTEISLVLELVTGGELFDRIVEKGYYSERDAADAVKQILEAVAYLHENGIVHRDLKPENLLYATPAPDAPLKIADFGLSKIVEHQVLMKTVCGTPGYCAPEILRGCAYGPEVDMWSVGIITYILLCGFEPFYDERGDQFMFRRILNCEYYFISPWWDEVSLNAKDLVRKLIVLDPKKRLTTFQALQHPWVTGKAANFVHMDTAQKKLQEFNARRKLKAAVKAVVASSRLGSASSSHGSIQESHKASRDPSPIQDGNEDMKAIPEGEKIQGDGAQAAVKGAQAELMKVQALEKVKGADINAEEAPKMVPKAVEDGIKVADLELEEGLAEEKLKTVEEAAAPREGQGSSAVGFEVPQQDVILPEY

[26] = target: Insulin receptor (Homo sapiens, UniProt P06213)

Sequence of D(1A) dopamine receptor (P21728 whole entry): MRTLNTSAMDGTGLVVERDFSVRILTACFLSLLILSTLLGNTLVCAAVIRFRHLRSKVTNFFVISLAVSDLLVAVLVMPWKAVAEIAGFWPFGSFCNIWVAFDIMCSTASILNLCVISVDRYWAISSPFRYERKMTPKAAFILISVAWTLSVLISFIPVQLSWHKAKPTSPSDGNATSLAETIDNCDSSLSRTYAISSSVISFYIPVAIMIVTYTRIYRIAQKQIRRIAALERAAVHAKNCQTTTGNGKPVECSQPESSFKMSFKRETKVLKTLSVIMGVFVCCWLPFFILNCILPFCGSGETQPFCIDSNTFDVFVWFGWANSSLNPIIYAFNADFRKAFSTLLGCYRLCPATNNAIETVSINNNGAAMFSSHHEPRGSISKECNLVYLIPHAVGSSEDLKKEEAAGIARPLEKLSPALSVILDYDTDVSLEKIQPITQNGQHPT

Structure (SMILES): O=C(Nc1cccnn1)N1CC(C/C=C/c2cncc(Oc3ccc(C(F)(F)F)cn3)n2)C1
Ki [8]: 1340 nM
% of control [9]: 1.4%
Ki [10]: 1140 nM
% of control [11]: 0%
% of control [12]: 0%
Ki [13]: 249 nM
Ki [14]: 596 nM
Ki [15]: 1660 nM
Ki [16]: 472 nM
Ki [17]: 437 nM

Structure (SMILES): O=C(Nc1cccnn1)N1CCC(=Cc2cccc(Oc3ccc(C(F)(F)F)cn3)c2)CC1
% of control [18]: 45%
% of control [19]: 0%
% of control [20]: 42%
Ki [21]: 1140 nM

Further lines, with some results ahead:

Ki [1]: > 10000 nM
Ki [2]: > 10000 nM
Structure (SMILES): O=C(c1ccc(F)cc1)N1CC(COc2ccc(Br)cc2)(C(=O)O)C1 [PF-04475866]

% of control [3]: 28%
IC50 [4]: 3500 nM
% of control [5]: 42%
% of control [6]: 35%
% of inhibition [7]: 33%
Structure (SMILES): COc1ccc2cc(OCC3(C(=O)O)CN(C(=O)c4ccc(F)cc4)C3)ccc2c1 [PF-04418948]

% of inhibition [22]: 0.3%
IC50 [23]: > 10000 nM
% of inhibition [25]: 22.5%
IC50 [26]: > 10000 nM
Structure (SMILES): OCCn1cc(-c2cnc3nnn(Cc4ccc5ncccc5c4)c3n2)cn1 [PF-04217903]
% of inhibition [24]: 0.4%
